Results from patent US9469650B2, “Melampomagnolide B derivatives” (BOARD OF TRUSTEES OF THE UNIVERSITY OF ARKANSAS, priority 2013, dated 2016).

Key:
[1] = system: HCC-2998; test: panel of 60 human tumor cell lines, growth inhibition (Colon Cancer); conditions: for Percent Growth: HCC-2998
[2] = system: IGROV1; test: panel of 60 human tumor cell lines, growth inhibition (Ovarian Cancer); conditions: for Percent Growth: IGROVI
[3] = system: SF-268; test: panel of 60 human tumor cell lines, growth inhibition (CNS Cancer)
[4] = system: NCI/ADR-RES; test: panel of 60 human tumor cell lines, growth inhibition (Ovarian Cancer)
[5] = system: CAKI-1; test: panel of 60 human tumor cell lines, growth inhibition (Renal Cancer)
[6] = system: MCF7; test: panel of 60 human tumor cell lines, growth inhibition (Breast Cancer); conditions: for GI50: MCF7, MCF7; for Percent Growth: MCF7
[7] = system: SW-620; test: panel of 60 human tumor cell lines, growth inhibition (Colon Cancer); conditions: for GI50: SW-620, SW-620; for Percent Growth: SW-620
[8] = system: MDA-MB-468; test: panel of 60 human tumor cell lines, growth inhibition (Breast Cancer)
[9] = system: SNB-75; test: panel of 60 human tumor cell lines, growth inhibition (CNS Cancer)
[10] = system: HCT-116; test: panel of 60 human tumor cell lines, growth inhibition (Colon Cancer); conditions: HCT-116

C=C1C(=O)O[C@H]2[C@H]1CC/C(COC(=O)NCCc1ccccn1)=C\CC[C@@]1(C)O[C@@H]21 [JVM 61, ((1aR,7aS,10aS,10bS,E)-1a-methyl-8-methylene-9-oxo-1a,2,3,6,7,7a,8,9,10a,10b-decahydrooxireno[2′,3′:9,10]cyclodeca[1,2-b]furan-5-yl)methyl-(2-(pyridin-2-yl)ethyl)carbamate]
Percent Growth ([1]; Log10 Concentration −4.0): −86%
Percent Growth ([1]; Log10 Concentration −5.0): 87%
Percent Growth ([1]; Log10 Concentration −6.0): 100%
Percent Growth ([1]; Log10 Concentration −7.0): 103%
Percent Growth ([1]; Log10 Concentration −8.0): 101%
GI50 ([1]; Homo sapiens, HCC 2998): 16.3 µM
CC50 ([1]; Homo sapiens, HCC 2998, read-out: LC50): 62.1 µM
IC (TGI) ([1]; Homo sapiens, HCC 2998, read-out: TGI): 31.8 µM
GI50 ([2]; Homo sapiens, IGROV-1): 14.4 µM
CC50 ([2]; Homo sapiens, IGROV-1, read-out: LC50): 78.9 µM
IC (TGI) ([2]; Homo sapiens, IGROV-1, read-out: TGI): 33.8 µM
Percent Growth ([2]; Log10 Concentration −4.0): −64%
Percent Growth ([2]; Log10 Concentration −5.0): 72%
Percent Growth ([2]; Log10 Concentration −6.0): 102%
Percent Growth ([2]; Log10 Concentration −7.0): 104%
Percent Growth ([2]; Log10 Concentration −8.0): 106%
GI50 ([3]; Homo sapiens, SF-268): 16.2 µM
CC50 ([3]; Homo sapiens, SF-268, read-out: LC50): 71.7 µM
IC (TGI) ([3]; Homo sapiens, SF-268, read-out: TGI): 34 µM
Percent Growth ([3]; SF-268, Log10 Concentration −4.0): −72%
Percent Growth ([3]; SF-268, Log10 Concentration −5.0): 82%
Percent Growth ([3]; SF-268, Log10 Concentration −6.0): 102%
Percent Growth ([3]; SF-268, Log10 Concentration −7.0): 109%
Percent Growth ([3]; SF-268, Log10 Concentration −8.0): 106%
GI50 ([4]; Homo sapiens): 20.1 µM
CC50 ([4]; Homo sapiens, read-out: LC50): > 100 µM
IC (TGI) ([4]; Homo sapiens, read-out: TGI): 54.7 µM
Percent Growth ([4]; Log10 Concentration −4.0): −30%
Percent Growth ([4]; Log10 Concentration −5.0): 85%
Percent Growth ([4]; Log10 Concentration −6.0): 106%
Percent Growth ([4]; Log10 Concentration −7.0): 106%
Percent Growth ([4]; Log10 Concentration −8.0): 105%
Percent Growth ([5]; CAKI-1, Log10 Concentration −4.0): −83%
Percent Growth ([5]; CAKI-1, Log10 Concentration −5.0): 6%
Percent Growth ([5]; CAKI-1, Log10 Concentration −6.0): 88%
Percent Growth ([5]; CAKI-1, Log10 Concentration −7.0): 93%
Percent Growth ([5]; CAKI-1, Log10 Concentration −8.0): 99%
GI50 ([5]; Homo sapiens, CAKI-1): 2.88 µM
CC50 ([5]; Homo sapiens, CAKI-1, read-out: LC50): 42.8 µM
IC (TGI) ([5]; Homo sapiens, CAKI-1, read-out: TGI): 11.7 µM
GI50 ([6]; Homo sapiens): 2.65 µM
GI50 ([6]; Homo sapiens, 5-dose assay): 2.85 µM
CC50 ([6]; Homo sapiens, MCF7, read-out: LC50): 61.4 µM
IC (TGI) ([6]; Homo sapiens, MCF7, read-out: TGI): 13 µM
Percent Growth ([6]; Log10 Concentration −4.0): −66%
Percent Growth ([6]; Log10 Concentration −5.0): 8%
Percent Growth ([6]; Log10 Concentration −6.0): 85%
Percent Growth ([6]; Log10 Concentration −8.0): 91%
GI50 ([7]; Homo sapiens): 3.13 µM
GI50 ([7]; Homo sapiens, 5-dose assay): 3.13 µM
CC50 ([7]; Homo sapiens, SW-620, read-out: LC50): 54.5 µM
IC (TGI) ([7]; Homo sapiens, SW-620, read-out: TGI): 12.3 µM
Percent Growth ([7]; Log10 Concentration −4.0): −70%
Percent Growth ([7]; Log10 Concentration −5.0): 7%
Percent Growth ([7]; Log10 Concentration −6.0): 92%
Percent Growth ([7]; Log10 Concentration −7.0): 105%
Percent Growth ([7]; Log10 Concentration −8.0): 109%
GI50 ([8]; Homo sapiens, MDA-MB-468): 3.22 µM
CC50 ([8]; Homo sapiens, MDA-MB-468, read-out: LC50): 64.5 µM
IC (TGI) ([8]; Homo sapiens, MDA-MB-468, read-out: TGI): 16.4 µM
Percent Growth ([8]; MDA-MB-468, Log10 Concentration −4.0): −66%
Percent Growth ([8]; MDA-MB-468, Log10 Concentration −5.0): 18%
Percent Growth ([8]; MDA-MB-468, Log10 Concentration −6.0): 83%
Percent Growth ([8]; MDA-MB-468, Log10 Concentration −7.0): 89%
Percent Growth ([8]; MDA-MB-468, Log10 Concentration −8.0): 95%
GI50 ([9]; Homo sapiens, SNB-75): 3.78 µM
CC50 ([9]; Homo sapiens, SNB-75, read-out: LC50): 48.4 µM
IC (TGI) ([9]; Homo sapiens, SNB-75, read-out: TGI): 18.6 µM
Percent Growth ([9]; SNB-75, Log10 Concentration −4.0): −88%
Percent Growth ([9]; SNB-75, Log10 Concentration −5.0): 32%
Percent Growth ([9]; SNB-75, Log10 Concentration −6.0): 74%
Percent Growth ([9]; SNB-75, Log10 Concentration −7.0): 76%
Percent Growth ([9]; SNB-75, Log10 Concentration −8.0): 81%
Percent Growth ([10]; Log10 Concentration −4.0): −99%
Percent Growth ([10]; Log10 Concentration −5.0): −33%
Percent Growth ([10]; Log10 Concentration −6.0): 82%
Percent Growth ([10]; Log10 Concentration −7.0): 102%
